How the values were obtained:
[1] = test system: B16; assay: Inhibition of melanogenesis in mouse B16 cells; format: functional, cell-based
[2] = test system: B16; assay: Inhibition of melanogenesis in mouse B16 cells at 10 uM; format: functional
[3] = test system: B16; assay: Selectivity ratio for inhibition of melanogenesis in mouse B16 cell of compound to N-phenylthiourea; format: functional

Compound | IC50 [1] | inhibition at 10 µM [2] | Ratio [3]
CCc1ccccc1NC(N)=S | > 10 µM | < 10% | 
NC(=S)Nc1ccccc1CO | > 10 µM | < 10% | 
NC(=S)NCc1ccccc1 | > 10 µM | < 10% | 
NC(=S)NCCc1ccccc1 | > 10 µM | < 10% | 
NC(=S)NCCCc1ccccc1 | > 10 µM | < 10% | 
NC(=S)NCCCCc1ccccc1 | > 10 µM | < 10% | 
Cc1ccc(NC(N)=S)cc1 | 5.5 µM | 83% | 
CCc1ccc(NC(N)=S)cc1 | 4.9 µM | 88% | 
CC(C)(C)c1ccc(NC(N)=S)cc1 | 3.7 µM | 95% | 
NC(=S)Nc1ccc(Cl)cc1 | 4 µM | 84% | 
NC(=S)Nc1ccc(O)cc1 | 6.3 µM | 70% | 
Cc1cccc(NC(N)=S)c1 | 5 µM | 78% | 
Cc1ccccc1NC(N)=S | > 10 µM | < 10% | 
COc1ccc(NC(N)=S)cc1 | 5.6 µM | 80% | 
CC(C)(C)c1ccccc1NC(N)=S | > 10 µM | < 10% | 
COc1ccccc1NC(N)=S | > 10 µM | < 10% | 
Cc1ccc(/C=N/NC(N)=S)cc1 | 6.8 µM | 64% | 
CCc1ccc(/C=N/NC(N)=S)cc1 | 3.4 µM | 100% | 2
NC(=S)N/N=C/c1ccccc1 [PHENYLTHIOSEMICARBAZONE] | > 10 µM | < 10% | 
NC(=S)Nc1ccccc1 [PHENYLTHIOUREA] | 5.4 µM | 84% | 

— ChEMBL document CHEMBL1157910, “Structural requirement(s) of N-phenylthioureas and benzaldehyde thiosemicarbazones as inhibitors of melanogenesis in melanoma B 16 cells” (Bioorg Med Chem Lett, 2010)
